Experimental findings from patent US20090170847A1, “Imidazopyridine Derivatives Inhibiting Protein Kinase Activity, Method for the Preparation Thereof and Pharmaceutical Composition Containing Same” (priority 2006, published 2009) are described below.

Assay type in all cases: biochemical
One assay addresses T1, CDK-2/cycline A (Homo sapiens, UniProt P24941).
T1 construct: purchased Upstate
Kind of assay: CDK-2 enzyme inhibition (histone H1, 32P-ATP). The method, then:
(§1) 0.33 mg/ml of MBP (Upstate), 100 μM of ATP and 0.25 μCi of ^32P-ATP were added to the buffer solution as substrates. 5 nM of recombinant Erk-1 (Upstate) was added the resulting mixture, and the mixture was reacted at 30° C. for 1 hour. The reaction was terminated by adding 5 μl of 5% phosphoric acid solution to 25 μl of the reaction mixture. 15 μl of the resulting solution was dropped on whatman p81 filter paper, which was then washed in 0.5% phosphoric acid solution for 10 mins. After repeating the washing 3 times, the filter paper was dried and cpm thereof was measured by a liquid scintillation counter (Packard, USA). Inhibitory capacities of the test compounds for the enzyme activity were assessed according to the same method as in GSK-3β analysis, and IC50 value was calculated.
The procedure of ERK-1 analysis was repeated to assess inhibitory capacities of the test compounds for the enzyme activity, except for using 2.5 μg of histone H1 (Upstate) and 100 nM of recombinant CDK-2/cycline A (Upstate).

The next assay concerns the target T2, KDR (Homo sapiens, UniProt P35968).
T2 construct: purchased Upstate
Kind of assay: KDR enzyme inhibition (Biotin-polyE4Y, alphascreen). The following applies: 0.1 μM ATP. The method, then: (§2) The test solution prepared above by dissolving a test compound in DMSO was added to the reaction solution in an amount of less than 5% based on the total reaction solution to analyze the capacity for enzyme inhibitory activity. The cpm value obtained when the test compounds was present relative to the cpm value in the absence of the test compound was represented by percentage, and IC50 (μM) was determined as the concentration of the test compound required to inhibit the enzyme activity by 50% relatively to the control solution.
The compounds prepared in the Examples were dissolved in dimethylsulfoxide (DMSO) at a concentration of 12.5 mM to prepare test solution, and enzyme reaction was conducted in a buffer solution containing 50 mM tris-HCl (pH 7.5), 5 mM MgCl2, 1 mM MnCl2, 0.01% tween-20 and 2 mM of DTT. 1 nM of Biotin-polyE4Y (Packard) and 0.1 μM of ATP were added to the buffer solution as substrates. 2 nM of recombinant KDR (Upstate) was added the resulting mixture and reaction was carried out at 30° C. for 1 hour. 10 μl of a diluted solution prepared by diluting alphascreen phosphotyrosine (T-Tyr-100, Packard) beads with a solution containing 6.25 mM of HEPES (pH 7.4), 250 mM of NaCl, 100 Mm EDTA, and 0.25% BSA was added to 15 μl of the KDR reaction solution. After a reaction at a room temperature for 1 hour, alphascreen signal was measured by a fusion a-FP (Packard). Inhibitory capacities of the test compounds for the enzyme activity were assessed according to the same method as in GSK-3β analysis, and IC50 value was calculated.

The next assay concerns the target T3, Aurora Kinase A (Homo sapiens, UniProt O14965).
T3 construct: purchased Upstate
T3 sequence (O14965 1-403): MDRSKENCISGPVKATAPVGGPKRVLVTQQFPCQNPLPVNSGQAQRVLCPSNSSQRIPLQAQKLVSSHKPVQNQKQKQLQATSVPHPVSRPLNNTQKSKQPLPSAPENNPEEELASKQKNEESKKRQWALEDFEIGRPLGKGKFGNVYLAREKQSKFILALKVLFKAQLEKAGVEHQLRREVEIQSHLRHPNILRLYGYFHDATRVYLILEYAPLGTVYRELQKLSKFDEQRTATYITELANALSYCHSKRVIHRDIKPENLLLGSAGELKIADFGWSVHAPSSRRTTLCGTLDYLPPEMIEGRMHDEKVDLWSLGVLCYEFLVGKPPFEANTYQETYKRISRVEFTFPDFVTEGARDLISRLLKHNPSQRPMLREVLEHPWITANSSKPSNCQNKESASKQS
The assay can be described thus: Aurora kinase A enzyme inhibition (Kemptide, Kinase glo). The following applies: 1 μM ATP. The method, then:
as §2
(§3) A test solution was prepared by dissolving one of the compounds of the Examples in DMSO at a concentration of 12.5 mM. Enzyme reaction was conducted in a buffer solution containing 20 mM of HEPES (pH 7.5), 5 mM MgCl2, 0.5 mM ethylene glycol bis(b-aminoethylether) tetraacetic acid (EGTA), 200 mM of KCl, 1 mM of DTT and 0.05% triton X-100. 100 μM of Kemptide peptide (Upstate) and 1 μM of ATP were added to the buffer solution as substrates. Recombinant aurora kinase (Upstate) was added the resulting mixture at a concentration of 10 nM and reaction was carried out at 30° C. for 1 hour. 25 μl of the resulting solution was mixed with 25 μl of Kinase glo (promega), thereby inducing the second reaction by luciferase. The amount of remained ATP was measured by fusion a-FP (Packard, USA). Inhibitory capacities of the test compounds for the enzyme activity were assessed according to the same method as in GSK-3β analysis, and IC50 value was calculated.

For a further assay, the target named is T4, PDK-1 (Homo sapiens, UniProt O15530).
T4 construct: purchased Upstate
T4 sequence (O15530 1-556): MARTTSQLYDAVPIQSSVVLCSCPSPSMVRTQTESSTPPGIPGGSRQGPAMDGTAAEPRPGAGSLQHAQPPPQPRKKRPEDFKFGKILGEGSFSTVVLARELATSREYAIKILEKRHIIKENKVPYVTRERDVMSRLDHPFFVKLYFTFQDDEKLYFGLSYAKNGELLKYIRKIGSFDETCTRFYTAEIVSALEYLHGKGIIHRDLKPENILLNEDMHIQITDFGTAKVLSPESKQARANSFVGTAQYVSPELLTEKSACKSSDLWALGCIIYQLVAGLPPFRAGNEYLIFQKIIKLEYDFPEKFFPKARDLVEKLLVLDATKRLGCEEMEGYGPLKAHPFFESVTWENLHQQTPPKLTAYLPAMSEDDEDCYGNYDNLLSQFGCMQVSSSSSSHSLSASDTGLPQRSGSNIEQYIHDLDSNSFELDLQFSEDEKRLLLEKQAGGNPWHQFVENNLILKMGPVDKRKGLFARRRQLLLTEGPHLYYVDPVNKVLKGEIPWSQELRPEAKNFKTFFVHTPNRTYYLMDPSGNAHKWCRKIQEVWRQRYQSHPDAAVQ
Kind of assay: PDK-1 enzyme inhibition (PDKtide, Kinase glo). The method, then: as §3
The procedure of aurora kinase A analysis was repeated to assess inhibitory capacities of the test compounds for the enzyme activity, except for using a buffer solution containing 50 mM of tris-HCl (pH 7.5), 10 mM of MgCl2, 1 mM of EGTA and 1 mM of […]; 2.5 μM of PDKtide (peptide, Upstate) (Upstate); and 31.5 nM of recombinant PDK1 (Upstate).

For the next assay, the target named is T5, JNK-1 (Homo sapiens, UniProt P45983).
T5 construct: purchased Upstate
T5 sequence (P45983 whole entry, species assumed): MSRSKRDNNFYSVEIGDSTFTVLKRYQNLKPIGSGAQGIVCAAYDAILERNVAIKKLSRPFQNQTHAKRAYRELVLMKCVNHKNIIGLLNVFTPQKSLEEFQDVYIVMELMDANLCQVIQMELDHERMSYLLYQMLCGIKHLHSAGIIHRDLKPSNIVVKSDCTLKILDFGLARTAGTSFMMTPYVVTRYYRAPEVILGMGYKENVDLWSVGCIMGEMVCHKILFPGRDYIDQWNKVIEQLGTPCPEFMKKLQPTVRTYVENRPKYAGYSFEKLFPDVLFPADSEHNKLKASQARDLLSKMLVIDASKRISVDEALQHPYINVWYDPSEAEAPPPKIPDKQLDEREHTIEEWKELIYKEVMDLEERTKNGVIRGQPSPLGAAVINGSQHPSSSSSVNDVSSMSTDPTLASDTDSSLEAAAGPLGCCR
The assay can be described thus: JNK-1 enzyme inhibition (GST-ATF2, 32P-ATP).

A further assay deals with T6, ERK-1 (Homo sapiens, UniProt P27361).
T6 construct: purchased Upstate
T6 sequence (P27361 whole entry, species assumed): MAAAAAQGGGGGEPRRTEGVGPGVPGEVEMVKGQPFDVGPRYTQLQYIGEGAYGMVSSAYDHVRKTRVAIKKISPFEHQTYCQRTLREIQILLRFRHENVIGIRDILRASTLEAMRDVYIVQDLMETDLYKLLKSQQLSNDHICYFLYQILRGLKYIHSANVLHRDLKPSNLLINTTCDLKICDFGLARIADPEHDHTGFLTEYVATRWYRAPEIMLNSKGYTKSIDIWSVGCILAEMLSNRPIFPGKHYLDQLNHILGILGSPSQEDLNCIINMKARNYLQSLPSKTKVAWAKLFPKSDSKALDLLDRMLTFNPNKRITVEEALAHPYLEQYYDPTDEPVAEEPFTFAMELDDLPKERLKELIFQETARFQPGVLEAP
Kind of assay: ERK-1 enzyme inhibition (MBP, 32P-ATP). The following applies: ERK-1, 100 μM ATP. As to the method: as §2
as §1, with “The compounds prepared in the Examples were dissolved in dimethylsulfoxide (DMSO) at a concentration of 12.5 mM to prepare test compounds and enzyme reaction was conducted in a buffer solution containing 50 mM of tris-HCl (pH 7.5), 10 mM of MgCl2, 1 mM of EGTA, 1 mM of EDTA and 1 mM of DTT. 0.33” for “0.33”

The target in assay [1] is T7, p38 Mitogen-activated protein kinase (MAPK) (Homo sapiens, UniProt Q16539).
T7 construct: purchased Upstate
T7 sequence (Q16539 whole entry): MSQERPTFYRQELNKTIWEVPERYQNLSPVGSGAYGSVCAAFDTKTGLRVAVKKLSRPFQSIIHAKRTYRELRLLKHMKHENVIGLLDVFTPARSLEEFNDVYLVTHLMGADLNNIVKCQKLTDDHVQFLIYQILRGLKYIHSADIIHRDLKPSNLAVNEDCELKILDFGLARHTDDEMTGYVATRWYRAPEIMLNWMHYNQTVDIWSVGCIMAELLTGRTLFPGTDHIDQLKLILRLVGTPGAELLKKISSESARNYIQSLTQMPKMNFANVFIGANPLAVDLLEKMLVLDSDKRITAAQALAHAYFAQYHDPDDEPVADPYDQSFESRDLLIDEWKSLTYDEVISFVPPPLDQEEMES
The assay can be described thus: p38 MAPK enzyme inhibition (histone H1, 32P-ATP). The following applies: p38 MAPK (recombinant p38a).
Description: The procedure of ERK-1 analysis was repeated to assess inhibitory capacities of the test compounds for the enzyme activity, except for using 2.5 μg of histone H1 (Upstate) and 5 nM of recombinant p38a (Upstate).

T2 sequence (P35968 20-1356, species assumed): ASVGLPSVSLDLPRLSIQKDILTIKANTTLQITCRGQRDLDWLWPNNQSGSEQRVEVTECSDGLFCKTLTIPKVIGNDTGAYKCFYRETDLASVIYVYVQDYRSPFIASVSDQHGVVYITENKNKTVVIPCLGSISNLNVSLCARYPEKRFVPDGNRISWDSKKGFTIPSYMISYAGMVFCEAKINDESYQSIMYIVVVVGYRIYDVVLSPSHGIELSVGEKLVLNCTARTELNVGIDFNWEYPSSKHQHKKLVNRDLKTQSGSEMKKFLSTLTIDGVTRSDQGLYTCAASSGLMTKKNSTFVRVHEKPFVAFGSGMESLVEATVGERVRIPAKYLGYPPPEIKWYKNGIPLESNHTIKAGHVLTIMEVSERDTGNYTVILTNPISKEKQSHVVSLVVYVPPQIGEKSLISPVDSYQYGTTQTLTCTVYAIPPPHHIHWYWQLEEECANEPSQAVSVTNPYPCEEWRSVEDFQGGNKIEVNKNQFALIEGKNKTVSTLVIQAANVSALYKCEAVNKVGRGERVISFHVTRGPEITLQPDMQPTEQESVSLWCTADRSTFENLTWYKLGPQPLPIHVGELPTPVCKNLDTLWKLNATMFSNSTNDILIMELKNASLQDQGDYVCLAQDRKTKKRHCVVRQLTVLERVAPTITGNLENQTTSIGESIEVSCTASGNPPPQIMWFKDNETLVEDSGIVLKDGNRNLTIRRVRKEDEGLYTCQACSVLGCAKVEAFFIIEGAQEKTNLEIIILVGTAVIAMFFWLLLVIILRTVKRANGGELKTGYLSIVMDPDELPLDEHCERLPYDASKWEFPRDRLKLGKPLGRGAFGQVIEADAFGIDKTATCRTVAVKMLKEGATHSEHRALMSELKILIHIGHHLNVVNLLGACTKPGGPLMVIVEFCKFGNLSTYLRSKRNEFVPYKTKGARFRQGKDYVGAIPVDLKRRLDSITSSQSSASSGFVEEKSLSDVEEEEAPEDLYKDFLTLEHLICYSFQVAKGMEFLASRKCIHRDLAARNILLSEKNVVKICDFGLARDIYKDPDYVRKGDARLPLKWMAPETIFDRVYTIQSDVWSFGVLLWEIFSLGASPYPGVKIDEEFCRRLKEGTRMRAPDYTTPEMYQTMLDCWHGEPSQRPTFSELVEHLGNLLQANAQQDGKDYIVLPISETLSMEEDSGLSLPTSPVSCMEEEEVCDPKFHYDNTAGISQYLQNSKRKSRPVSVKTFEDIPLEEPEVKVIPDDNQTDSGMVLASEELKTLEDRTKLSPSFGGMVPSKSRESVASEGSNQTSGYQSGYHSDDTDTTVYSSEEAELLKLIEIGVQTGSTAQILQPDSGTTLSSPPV

Take `Cc1ccncc1NC(=O)c1ccnc2[nH]c(-c3ccc(NCCCCN(C)C)cc3)nc12` [Example 343, 2-[4-(4-dimethylamino-butylamino)-phenyl]-3H-imidazo[4,5-b]pyridine-7-carboxylic acid(4-methyl-pyridin-3-yl)-amide]: the IC50 was 300 nM against CDK-2/cycline A, 170 nM on KDR, 198 nM against Aurora Kinase A and 3100 nM against PDK-1.
Consider `Cc1ccncc1NC(=O)c1ccnc2[nH]c(-c3ccc(NCCCN4CCCC4)cc3)nc12` [Example 340, 2-[4-(3-pyrrolidin-1-yl-propylamino)-phenyl]-3H-imidazo[4,5-b]pyridine-7-carboxylic acid(4-methyl-pyridin-3-yl)-amide], for which the IC50 against CDK-2/cycline A turned out to be 400 nM; against JNK-1, 100 nM.
Turning to `CCS(=O)(=O)Nc1ccc(CCNC(=O)c2ccnc3[nH]c(-c4ccc(F)cc4)nc23)cc1` [Example 198, 2-(4-fluoro-phenyl)-3H-imidazo[4,5-b]pyridine-7-carboxylic acid[2-(4-ethanesulfonylamino-phenyl)-ethyl]-amide], the IC50 on CDK-2/cycline A amounted to 2400 nM; against KDR it was 12500 nM.
In the case of `Cc1ccncc1NC(=O)c1c(Br)cnc2[nH]c(-c3cccc(F)c3)nc12` [Example 452, 6-bromo-2-(3-fluoro-phenyl)-3H-imidazo[4,5-b]pyridine-7-carboxylic acid(4-methyl-pyridin-3-yl)-amide], the results for the IC50 on ERK-1 and against CDK-2/cycline A were 19000 nM and 350 nM, respectively.
For the compound `COc1ccncc1NC(=O)c1ccnc2[nH]c(-c3ccc(F)cc3)nc12` [Example 246, 2-(4-fluoro-phenyl)-3H-imidazo[4,5-b]pyridine-7-carboxylic acid(4-methyloxy-pyridin-3-yl)-amide], the IC50 stood at 225 nM against CDK-2/cycline A, 520 nM on KDR and 180 nM against JNK-1.
For `Cc1ccncc1NC(=O)c1ccnc2[nH]c(-c3ccc(F)cc3)nc12` [Example 241, 2-(4-fluoro-phenyl)-3H-imidazo[4,5-b]pyridine-7-carboxylic acid(4-methyl-pyridin-3-yl)-amide], the values for the concentration for half-maximal inhibition (IC50) against ERK-1 and at PDK-1 were 16500 nM and 28500 nM, respectively.
`CCOc1ccncc1NC(=O)c1ccnc2[nH]c(-c3ccc(F)cc3)nc12` [Example 287, 2-(4-fluoro-phenyl)-3H-imidazo[4,5-b]pyridine-7-carboxylic acid(4-ethoxy-pyridin-3-yl)-amide]: the IC50 on CDK-2/cycline A is 120 nM; at KDR, 1500 nM; at JNK-1, 460 nM.
As to `Cc1ccncc1NC(=O)c1ccnc2[nH]c(-c3cccc(F)c3)nc12` [Example 451, 2-(3-fluoro-phenyl)-3H-imidazo[4,5-b]pyridine-7-carboxylic acid(4-methyl-pyridin-3-yl)-amide], the IC50 was found to be 360 nM against CDK-2/cycline A, 3250 nM in assay [1], 1650 nM against KDR and 10500 nM on JNK-1.
